# Measured values: article PMC11882969 (Nature Communications, 2025)
# Legend:
# CB1 (rCB1) [1] = biological target: T1, CB1 (rCB1) (Rattus norvegicus, UniProt P20272); assay: Radioligand competition binding, [3H]-CP-55,940, rat brain membranes; conditions: rCB1
# CB1 (rCB1) [2] = biological target: T1, CB1 (rCB1); assay: Single-point radioligand displacement screen; assay type: binding; conditions: 10 µM, 1 µM or 300 nM by cell colour (not visible)
# T1 sequence (P20272 whole entry): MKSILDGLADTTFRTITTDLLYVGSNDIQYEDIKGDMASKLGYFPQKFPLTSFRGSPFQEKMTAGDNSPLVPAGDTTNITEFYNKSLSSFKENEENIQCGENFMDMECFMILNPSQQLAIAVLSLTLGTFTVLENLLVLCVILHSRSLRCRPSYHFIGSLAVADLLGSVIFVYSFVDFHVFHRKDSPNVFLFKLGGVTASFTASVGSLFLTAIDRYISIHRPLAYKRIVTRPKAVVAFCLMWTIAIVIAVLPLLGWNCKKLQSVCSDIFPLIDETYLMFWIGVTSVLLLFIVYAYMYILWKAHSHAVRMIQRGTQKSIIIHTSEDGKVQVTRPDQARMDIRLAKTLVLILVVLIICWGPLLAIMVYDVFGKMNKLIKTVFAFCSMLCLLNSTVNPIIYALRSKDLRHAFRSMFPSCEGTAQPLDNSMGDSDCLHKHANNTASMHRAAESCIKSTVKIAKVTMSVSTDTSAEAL
structure (smiles),measurement,setting,value
COC(=O)C(NC(=O)c1cc(C)n(-c2cccc(C#N)c2)n1)c1ccsc1 (centres unmarked) [‘31604],pKi [95% CI],CB1 (rCB1) [1],6.1 [6.0 – 6.2]
same,"% 1H-CP-55,940 displacement (mean) from single point screen",CB1 (rCB1) [2],41.46%
